We go through four compounds from ChEMBL document CHEMBL2074556, “Possible involvement of P-glycoprotein in the biliary excretion of grepafloxacin” (Clin Exp Pharmacol Physiol, 2002).

Data set [1] addresses Multidrug resistance protein 1a (Rattus norvegicus) (UniProt Q6PSM0). Description: TP_TRANSPORTER: […] in biliary excretion by Doxorubicin, Cyclosporin A and Erythromycin in vivo Wistar rat. In kind it is functional, organism-based. To be noted: Bile.
Data set [2] concerns the target T1, ATP-dependent translocase ABCB1 (Mus musculus, UniProt P21447). Description: TP_TRANSPORTER: increase in Doxorubicin intracellular accumulation (Doxorubicin: 5 uM, GPFX: 500 uM) in P388/ADR cells. In kind it is functional, cell-based.
Data set [3] deals with T1, ATP-dependent translocase ABCB1. Briefly: TP_TRANSPORTER: increase in Doxorubicin intracellular accumulation (Doxorubicin: 5 uM, Norfloxacin: 500 uM) in P388/ADR cells. Type of data set: functional, cell-based.
The target is the same in data set [4]. Description: TP_TRANSPORTER: increase in Doxorubicin intracellular accumulation (Doxorubicin: 5 uM, SPFX: 500 uM) in P388/ADR cells. In kind it is functional, cell-based.
For data set [5] the target is unchanged. Description: TP_TRANSPORTER: increase in Doxorubicin intracellular accumulation (Doxorubicin: 5 uM, Tosufloxacin: 500 uM) in P388/ADR cells. Type of data set: functional, cell-based.

Structures are written as SMILES.

T1 sequence (P21447 whole entry): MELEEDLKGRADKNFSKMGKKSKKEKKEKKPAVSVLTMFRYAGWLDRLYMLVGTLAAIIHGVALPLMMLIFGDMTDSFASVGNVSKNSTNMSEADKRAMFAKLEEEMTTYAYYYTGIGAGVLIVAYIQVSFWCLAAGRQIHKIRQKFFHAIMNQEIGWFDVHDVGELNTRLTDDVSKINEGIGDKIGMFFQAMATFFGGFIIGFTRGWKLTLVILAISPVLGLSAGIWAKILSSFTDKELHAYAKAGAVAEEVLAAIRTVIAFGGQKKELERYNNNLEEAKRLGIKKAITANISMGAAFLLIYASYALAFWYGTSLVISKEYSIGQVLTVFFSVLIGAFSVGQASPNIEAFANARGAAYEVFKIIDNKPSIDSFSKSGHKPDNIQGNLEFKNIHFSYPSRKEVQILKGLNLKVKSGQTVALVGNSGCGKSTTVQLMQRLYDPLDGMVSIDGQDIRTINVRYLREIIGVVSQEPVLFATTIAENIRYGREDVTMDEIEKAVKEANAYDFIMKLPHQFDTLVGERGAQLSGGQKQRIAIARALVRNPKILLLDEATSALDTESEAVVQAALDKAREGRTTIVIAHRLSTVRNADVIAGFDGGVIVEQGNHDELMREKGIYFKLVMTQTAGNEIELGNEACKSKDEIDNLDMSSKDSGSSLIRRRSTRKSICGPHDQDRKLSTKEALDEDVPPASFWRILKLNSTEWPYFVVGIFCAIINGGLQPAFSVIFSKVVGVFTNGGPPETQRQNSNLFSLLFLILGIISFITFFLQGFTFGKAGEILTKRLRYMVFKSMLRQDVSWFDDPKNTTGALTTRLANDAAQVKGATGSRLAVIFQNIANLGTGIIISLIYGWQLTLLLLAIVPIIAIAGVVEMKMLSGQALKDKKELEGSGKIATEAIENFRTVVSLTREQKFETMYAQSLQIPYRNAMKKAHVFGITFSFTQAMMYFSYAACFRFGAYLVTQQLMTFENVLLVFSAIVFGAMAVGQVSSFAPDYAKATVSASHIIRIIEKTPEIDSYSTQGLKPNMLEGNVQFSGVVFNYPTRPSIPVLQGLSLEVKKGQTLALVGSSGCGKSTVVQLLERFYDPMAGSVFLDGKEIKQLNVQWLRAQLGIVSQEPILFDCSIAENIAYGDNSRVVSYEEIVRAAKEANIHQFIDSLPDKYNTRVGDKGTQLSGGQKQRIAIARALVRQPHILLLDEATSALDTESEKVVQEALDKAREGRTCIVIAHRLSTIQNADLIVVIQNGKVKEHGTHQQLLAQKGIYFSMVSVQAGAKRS
Chain of Multidrug resistance protein 1a (Rattus norvegicus) (Q6PSM0 as listed by the source): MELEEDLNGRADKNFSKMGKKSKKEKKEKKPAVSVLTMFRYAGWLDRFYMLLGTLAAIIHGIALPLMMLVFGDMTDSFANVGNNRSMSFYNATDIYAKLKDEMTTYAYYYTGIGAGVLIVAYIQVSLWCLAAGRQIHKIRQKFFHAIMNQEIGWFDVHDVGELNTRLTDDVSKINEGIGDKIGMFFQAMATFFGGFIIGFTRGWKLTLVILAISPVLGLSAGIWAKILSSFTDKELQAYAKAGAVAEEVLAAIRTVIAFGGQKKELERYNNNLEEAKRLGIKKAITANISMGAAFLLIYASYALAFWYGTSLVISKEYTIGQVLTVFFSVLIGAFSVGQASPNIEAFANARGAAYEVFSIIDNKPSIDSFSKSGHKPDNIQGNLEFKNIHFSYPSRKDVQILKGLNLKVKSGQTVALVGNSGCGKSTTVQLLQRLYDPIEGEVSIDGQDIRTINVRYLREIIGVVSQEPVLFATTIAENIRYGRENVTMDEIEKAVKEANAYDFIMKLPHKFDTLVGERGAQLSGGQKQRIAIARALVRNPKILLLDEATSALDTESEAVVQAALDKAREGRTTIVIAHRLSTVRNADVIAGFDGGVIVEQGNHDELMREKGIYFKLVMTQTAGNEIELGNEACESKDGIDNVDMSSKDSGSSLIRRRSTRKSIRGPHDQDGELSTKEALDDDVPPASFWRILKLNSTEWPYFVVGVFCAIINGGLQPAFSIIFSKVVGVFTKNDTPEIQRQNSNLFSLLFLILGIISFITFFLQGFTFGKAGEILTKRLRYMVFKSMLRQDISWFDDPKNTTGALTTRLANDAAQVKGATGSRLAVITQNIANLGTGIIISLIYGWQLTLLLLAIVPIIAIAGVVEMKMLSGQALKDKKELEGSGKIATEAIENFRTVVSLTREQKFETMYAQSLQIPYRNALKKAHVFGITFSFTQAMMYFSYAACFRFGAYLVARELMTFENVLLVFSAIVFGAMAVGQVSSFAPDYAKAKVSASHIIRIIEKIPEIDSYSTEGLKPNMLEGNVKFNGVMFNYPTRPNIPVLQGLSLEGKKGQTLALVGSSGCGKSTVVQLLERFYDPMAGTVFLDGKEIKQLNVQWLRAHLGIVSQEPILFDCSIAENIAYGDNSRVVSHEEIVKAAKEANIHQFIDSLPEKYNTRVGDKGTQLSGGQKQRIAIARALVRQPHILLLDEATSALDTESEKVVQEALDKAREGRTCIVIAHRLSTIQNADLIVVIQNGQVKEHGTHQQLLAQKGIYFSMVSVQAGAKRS

With `Cc1c(F)c(N2CCNC(C)C2)cc2c1c(=O)c(C(=O)O)cn2C1CC1` (stereo not given) [GREPAFLOXACIN], the Activity entry is “substrate [+]” in data set [1] and “inhibitor [(at a rough estimate) 140 % of control]” in data set [2].
On to `CCn1cc(C(=O)O)c(=O)c2cc(F)c(N3CCNCC3)cc21` [NORFLOXACIN], for which, in data set [3], the Activity result is “inhibitor [(at a rough estimate) 290 % of control]”.
On to `C[C@@H]1CN(c2c(F)c(N)c3c(=O)c(C(=O)O)cn(C4CC4)c3c2F)C[C@H](C)N1` [SPARFLOXACIN], for which the Activity result in data set [4] is “inhibitor [(at a rough estimate) 140 % of control]”.
In the case of `NC1CCN(c2nc3c(cc2F)c(=O)c(C(=O)O)cn3-c2ccc(F)cc2F)C1` (stereo not given) [TOSUFLOXACIN], the Activity result in data set [5] is “inhibitor [(at a rough estimate) 200 % of control]”.
